The results in this text go back to PMC8026479 (Cancer Chemotherapy and Pharmacology, 2021).

A word on the Cmax: it is the maximum level reached in the sampled fluid or tissue. As a reminder, the clearance is the volume of plasma or blood freed of the substance per unit of time. By Tmax is commonly meant the time from dosing to the highest level. As usually defined, the half-life is the time in which the quantity being followed falls by half.

Like-named read-outs stand apart in the source and are kept apart here.

One data set concerns CD45+/CD3+ lymphocytes. The data set is described as follows: Ex vivo PHA-stimulated lymphocyte proliferation assay (G1T28-1-01). Format: in vivo. To be noted: Homo sapiens, 96 mg/m2, 4 h after end of infusion, read-out: maximum mean inhibition of proliferation of CD45+/CD3+ lymphocytes. As to the method:
Healthy male and/or female subjects aged 18–60 years, with a body weight of ≥ 50 kg and a body mass index of 18–32 kg/m^2, were enrolled. […] Following a 1-h exposure to EdU, cells were harvested, processed, and analyzed by flow cytometry to measure the percentage of proliferation through EdU + incorporation in CD45 + /CD3 + cells (T lymphocytes).
Two bone marrow samples (one pre-dose and one at 32 h post-dose) were excluded from analysis owing to contamination with peripheral blood. c Relative percentage of total bone marrow cells in the S phase at 24 and 32 h post-trilaciclib dose (n = 10). Data shown are mean ± standard deviation.

Data set [1] can be described thus: Study G1T28-02 Part 1 plasma PK (with E/P). Format: in vivo, human. The note with it: ES-SCLC + E/P; for Vd: read-out: Vz; for Tmax: range; for AUC: read-out: AUCtau (AUC0-inf, footnote a). An excerpt: G1T28-02 (NCT02499770) was a multicentre Phase Ib/IIa study in patients with newly diagnosed ES-SCLC [5]. Eligible patients were aged ≥ 18 years and had histologically or cytologically confirmed ES-SCLC, measurable disease per Response Evaluation Criteria in Solid Tumors (RECIST) version 1.1, an Eastern Cooperative Oncology Group (ECOG) performance status of 0–2, and adequate organ function. […] In the dose-finding Part 1 portion, blood samples for PK analysis were collected at prespecified time points on Cycle 1 Day 1 and Cycle 1 Day 3 (200 mg/m^2 cohort: all patients; 240 mg/m^2 cohort: optional).

Setting [2] is: 200 mg/m2, Cycle 1 Day 3 (n = 8), mean.
The mark [3] stands for this setting: 240 mg/m2, Cycle 1 Day 1 (n = 1).
Where [4] appears, read: human, plasma, intravenous, 200 mg/m2, Cycle 1 Day 1 (n = 8), mean.
The mark [5] stands for this setting: human, plasma, intravenous, 200 mg/m2, Cycle 1 Day 3 (n = 8), mean.
Where [6] appears, read: human, plasma, intravenous, 240 mg/m2, Cycle 1 Day 1 (n = 1).
The mark [7] stands for this setting: human, plasma, intravenous, 240 mg/m2, Cycle 1 Day 3 (n = 1).

Take `CN1CCN(c2ccc(Nc3ncc4cc5n(c4n3)C3(CCCCC3)CNC5=O)nc2)CC1` [trilaciclib]: the inhibition at 96 mg/m2 with CD45+/CD3+ lymphocytes was 37.2%. Also, the Cmax was 1620 ng/mL in data set [1] (setting [2]); 1570 ng/mL in data set [1] (setting [3]); 1240 ng/mL in data set [1] (human, plasma, intravenous, 200 mg/m2, Cycle 1 Day 1 (n = 8), mean, read-out: Cmax); 2260 ng/mL in data set [1] (human, plasma, intravenous, 240 mg/m2, Cycle 1 Day 3 (n = 1), read-out: Cmax). The T1/2 in data set [1] (setting [2]) is 9.12 h. Further, the AUC(0-inf) came to 2280 ng·h/mL in data set [1] (setting [3]) and 2560 ng·h/mL in data set [1] (human, plasma, intravenous, 200 mg/m2, Cycle 1 Day 1 (n = 8), mean, read-out: AUC0-inf). Further, the clearance in data set [1] (setting [4]) is 2500 mL/min; in data set [1] (setting [5]), 2230 mL/min; in data set [1] (setting [6]) it was 3850 mL/min; in data set [1] (setting [7]), 3000 mL/min. Moreover, the Vd stood at 1700 L in data set [1] (setting [4]), 1770 L in data set [1] (setting [5]), 967 L in data set [1] (setting [6]) and 1050 L in data set [1] (setting [7]). For the same molecule, the Tmax in data set [1] (human, plasma, intravenous, 200 mg/m2, Cycle 1 Day 1 (n = 8)) is 0.45 to 0.98 h; in data set [1] (human, plasma, intravenous, 200 mg/m2, Cycle 1 Day 3 (n = 8)) it was 0.47 to 1 h. Also, the figures for the AUC in data set [1] (setting [5]) and in data set [1] (setting [7]) were 3110 ng·h/mL and 2960 ng·h/mL, respectively. The half-life in data set [1] (setting [6]) was 2.91 h; in data set [1] (setting [7]) it was 4.03 h.
